Experiments:
[1] = system: choreic dyskinesia induced by dopamine agonist; test: In vivo model for dyskinesias associated with dopamine agonist therapy (MPTP parkinsonian monkeys); details: 0.3 mg/kg sc.; one MPTP parkinsonian monkey, dyskinesias induced by chronic L-DOPA followed by PHNO
Procedure: The following procedure may be used to assess the efficacy of an AMPA receptor antagonist in the treatment of dyskinesias associated with dopamine agonist therapy in the treatment of Parkinson's disease. Aged, female rhesus monkeys are rendered Parkinsonian as follows. Each monkey is first infused with 0.4 mg/kg MPTP (1-methyl-4-phenyl-1,2,3,6-tetrahydropyridine) via the right internal carotid artery. After being evaluated behaviorally for 3 to 6 weeks and being judged to have stable unilateral deficits, the animals receive a second MPTP injection via the left internal carotid artery. […] Once the monkeys are Parkinsonian, dyskinesias are induced over a period of approximately 3 to 6 weeks by treating the monkeys twice daily with subcutaneous injections of PHNO ((+)-4-propyl-9-hydroxynaphthoxazine) (a dopamine agonist). Dyskinesias are assessed 30 minutes after PHNO injection and every 30 minutes for the next 120 minutes (5 measurements) taking into account the following: type of dyskinesia (chorea, dystonia); intensity (0=absent; 1=mild; 2=moderate; 3=severe); and topography (arm, leg, trunk, generalized). The overall score (0-3) is averaged over the 5 measurements. Scoring is performed blindly from coded videotapes. An AMPA receptor antagonist is then administered together with the dopamine agonist at dosages ranging from 0.05 mg/kg to 1 mg/kg. […]

[2] = system: behavior of monkeys (MPTP-treated or untreated); test: Behavioral effect in other monkeys (MPTP-treated or untreated); format: in vivo, monkey; details: 0.3 mg/kg sc.
Procedure: Monkeys were made parkinsonian by intracarotid injection of the dopamine neuron toxin MPTP. Choreic and dystonic dyskinesias were induced in one monkey by chronic administration of L-DOPA followed by the selective D2 agonist PHNO. 3-(2-chloro-phenyl)-2-[2(6-diethylaminomethyl-pyridin-2-yl)-vinyl]-6-fluoro-3H-quinazolin-4-one (0.3 mg/kg sc.) reduced by 80% the choreic dyskinesia induced by dopamine agonist.

In the case of `CCN(CC)Cc1cccc(C=Cc2nc3ccc(F)cc3c(=O)n2-c2ccccc2Cl)n1` [3-(2-chloro-phenyl)-2-[2-(6-diethylaminomethyl-pyridin-2-yl)-vinyl]-6-fluoro-3H-quinazolin-4-one], the “reduction of choreic dyskinesia induced by dopamine agonist” value [1] is reported as 80% and the behavioral effect [2] is reported as “little or no behavioral effect”.

Source: patent US20010034345A1, “METHODS OF ADMINSTERING AN AMPA RECEPTOR ANTAGONIST TO TREAT DYSKINESIAS ASSOCIATED WITH DOPAMINE AGONIST THERAPY” (priority 1997, published 2001)
